Assay results as given in patent US10947188B2, “Small molecule ferroptosis inducers” (THE TRUSTEES OF COLUMBIA UNIVERSITY IN THE CITY OF NEW YORK, priority 2016, dated 2021).
Where two headings read alike, the source gives them in different places.

Tested on: HT-1080
Experiment: Modulatory profiling: Alamar Blue viability, lethal compound cotreated with death modulator (EC50, AUC); on AUC HT.BHA: reference of the scale not given here; on AUC HT.EGTA: reference of the scale not given here
Assay type: cell-based
Parameters: AUC, modulator HT.3MA / AUC, modulator HT.ALLN / AUC HT.ATA / AUC HT.ActD / AUC HT.BHA / AUC HT.BHT / AUC HT.BocD / AUC HT.CHX / AUC HT.Co2+ / AUC HT.DPQ / AUC HT.EGTA / AUC HT.Lmim / AUC HT.NAD+ / AUC HT.Nec-1 / AUC HT.SP600125 / AUC HT.TLCK / AUC HT.U0126: unit not given beside the values
Conditions: for AUC HT.ATA: HT-1080, modulator ATA; for AUC HT.ActD: HT-1080, modulator ActD; for AUC HT.BHA: HT-1080, modulator BHA; for AUC HT.BHT: HT-1080, modulator BHT; for AUC HT.BocD: HT-1080, modulator BocD; for AUC HT.CHX: HT-1080, modulator CHX; for AUC HT.Co2+: HT-1080, modulator Co2+; for AUC HT.CspA: HT-1080, modulator CspA; for AUC HT.DPQ: HT-1080, modulator DPQ; for AUC HT.Gd3+: HT-1080, modulator Gd3+; for AUC HT.LNAME: HT-1080, modulator LNAME; for AUC HT.Lmim: HT-1080, modulator Lmim; for AUC HT.NAD+: HT-1080, modulator NAD+; for AUC HT.NMMA: HT-1080, modulator NMMA; for HT.atoc (AUC) / HT.bCarotene (AUC) / HT.deferox (AUC) / HT.digoxin (AUC) / HT.trolox (AUC) / HT.zVAD (AUC) / EC50: HT-1080; for HT.atoc (AUC): modulator atoc; for HT.bCarotene (AUC): modulator bCarotene; for HT.deferox (AUC): modulator deferox; for HT.digoxin (AUC): modulator digoxin; for HT.trolox (AUC): modulator trolox; for HT.zVAD (AUC): modulator zVAD; for AUC, modulator HT.3MA / AUC, modulator HT.ALLN: HT-1080 cells, modulatory profile value (AUC); for AUC, modulator HT.3MA: lethal compound cotreated with modulator 3MA; for AUC, modulator HT.ALLN: lethal compound cotreated with modulator ALLN; for effect of ferroptosis inhibitors (iron chelators and lipophilic antioxidants) on lethality in modulatory profiling: HT-1080 and BJeLR; for EC50: Homo sapiens, HT-1080, 48 h, 48 h; for AUC HT.Nec-1: HT-1080, modulator Nec-1; for AUC HT.Pepstatin: HT-1080, modulator Pepstatin; for AUC HT.SP600125: HT-1080, modulator SP600125; for AUC HT.TLCK: HT-1080, modulator TLCK; for AUC HT.U0126: HT-1080, modulator U0126
[1] = cotreated with antioxidant Atoc
[2] = cotreated with antioxidant Trolox
[3] = cotreated with iron-chelator Deferoxamine
[4] = cotreated with iron-chelator Lmim

Compound | AUC HT.ATA | AUC HT.ActD | AUC HT.BHA | AUC HT.BHT | AUC HT.BocD | AUC HT.CHX | AUC HT.Co2+ | AUC HT.CspA | AUC HT.DPQ | AUC HT.Gd3+ | AUC HT.LNAME | AUC HT.Lmim | AUC HT.NAD+ | AUC HT.NMMA | HT.atoc (AUC) | HT.bCarotene (AUC) | HT.deferox (AUC) | HT.digoxin (AUC) | HT.trolox (AUC) | HT.zVAD (AUC) | other results
COc1ccc(-n2nnnc2S(=O)(=O)CC(=O)N2CCCCC2)cc1 [CIL48] | 0.04684 | 0.01673 | −0.06966 | −0.1547 | −0.03823 | 0.0148 | 0.0307 | 0.002689 | −0.0003728 | −0.003556 | −0.04087 | −0.01757 | −0.05465 | −0.01902 | 0.09021 | −0.00845 | 0.1268 | −0.01513 | −0.02612 | −0.005053 | AUC HT.EGTA (HT-1080, modulator EGTA): 0.01715; AUC, modulator HT.3MA: 0.0854; AUC, modulator HT.ALLN: 0.1611
O=S(=O)(c1ccc2c(c1)C(=NO)c1cc(S(=O)(=O)N3CCCCC3)ccc1-2)N1CCCCC1 [CIL56, 2,7-bis(piperidin-1-ylsulfonyl)-9H-fluoren-9-one oxime] | −0.01939 | −0.124 | 0.1774 | 0.0146 | −0.0127 | −0.07234 | 0.01296 | 0.01564 | 0.06245 | −0.01542 | 0.05375 | 0.1017 | 0.02315 | −0.01475 | 0.2436 | 0.05423 | 0.1269 | −0.1402 | 0.1421 | 0.03666 | AUC HT.EGTA (HT-1080, modulator EGTA): 0.02378; effect of ferroptosis inhibitors (iron chelators and lipophilic antioxidants) on lethality in modulatory profiling: suppression by canonical ferroptosis inhibitors; EC50 (DMSO): 0.443 µM; EC50 (cotreated with MEK inh U0126): 2.81 µM; EC50 [1]: 2.49 µM; EC50 (cotreated with antioxidant BHA): 2.65 µM; EC50 (cotreated with antioxidant BHT): 1.69 µM; EC50 [2]: 1.31 µM; EC50 [3]: 1.36 µM; EC50 [4]: 1.53 µM
N/C(Cc1ccc(Cl)cc1)=N\OC(=O)c1cccc2ccccc12 [CIL70] | −0.004378 | −0.02914 | 0.1062 | −0.03541 | −0.03004 | −0.02631 | 0.01978 | −0.0468 | 0.02696 | −0.01357 | 0.005993 | 0.2198 | 0.04321 | −0.005818 | 0.2733 | −0.001707 | 0.2561 | −0.1366 | 0.1205 | 0.002272 | AUC HT.EGTA (HT-1080, modulator EGTA): 0.01851; effect of ferroptosis inhibitors (iron chelators and lipophilic antioxidants) on lethality in modulatory profiling: suppression by canonical ferroptosis inhibitors; EC50 (DMSO): 4.44 µM; EC50 (cotreated with MEK inh U0126): 10.3 µM; EC50 [1]: 32.2 µM; EC50 (cotreated with antioxidant BHA): 13.3 µM; EC50 (cotreated with antioxidant BHT): 6.5 µM; EC50 [2]: 11.1 µM; EC50 [3]: 157 µM; EC50 [4]: 47.8 µM
COC(=O)[C@@H]1Cc2c([nH]c3ccccc23)C(C)(C)N1C(=O)CCl [CIL79] | −0.05302 | −0.04021 | 0.3909 | 0.3644 | −0.002385 | 0.02794 | 0.2948 | −0.03389 | 0.04764 | −0.02579 | 0.01224 | 0.4052 | −0.004292 | 0.003194 | 0.4488 | 0.005675 | 0.5494 | −0.0705 | 0.4225 | 0.003682 | AUC HT.EGTA (HT-1080, modulator EGTA): 0.02262; effect of ferroptosis inhibitors (iron chelators and lipophilic antioxidants) on lethality in modulatory profiling: suppression by canonical ferroptosis inhibitors; EC50 (DMSO): 0.271 µM; EC50 (cotreated with MEK inh U0126): 14.3 µM; EC50 [1]: 11.7 µM; EC50 (cotreated with antioxidant BHA): 10.1 µM; EC50 (cotreated with antioxidant BHT): 6.3 µM; EC50 [2]: 10.2 µM; EC50 [3]: 32.4 µM; EC50 [4]: 12 µM
CC[C@@]1(O)C(=O)OCc2c1cc1n(c2=O)Cc2cc3ccccc3nc2-1 [Camptothecin] | −0.00483 | −0.1287 | 0.04861 | −0.08411 | 0.03455 | 0.0562 | 0.1416 | −0.1552 | 0.008143 | 0.02887 | 0.01135 | 0.0722 | 0.06078 | 0.01978 | 0.004008 | 0.002837 | 0.1288 | 0.1442 | 0.01719 | 0.03249 | AUC HT.EGTA (HT-1080, modulator EGTA): 0.01652; AUC HT.Nec-1: 0.01102; AUC HT.Pepstatin: 0.005918; AUC HT.SP600125: 0.02319; AUC HT.TLCK: 0.04383; AUC HT.U0126: 0.0002717; AUC, modulator HT.3MA: 0.0192; AUC, modulator HT.ALLN: 0.03354
COc1cc2c(c(OC)c1OC)-c1ccc(OC)c(=O)cc1[C@@H](NC(C)=O)CC2 [Colchicine] | 0.1325 | 0.01343 | 0.01506 | −0.006747 | 0.1264 | 0.04333 | 0.1098 | −0.1209 | 0.01511 | 0.01351 | 0.008236 | 0.1199 | 0.1471 | 0.008585 | −0.0173 | 0.01723 | 0.2984 | 0.1359 | 0.01591 | 0.134 | AUC HT.EGTA (HT-1080, modulator EGTA): −0.000119; AUC HT.Nec-1: 0.01661; AUC HT.Pepstatin: 0.004413; AUC HT.SP600125: −0.02858; AUC HT.TLCK: 0.0306; AUC HT.U0126: 0.2237; AUC, modulator HT.3MA: 0.01861; AUC, modulator HT.ALLN: 0.1932
COc1cccc2c1C(=O)c1c(O)c3c(c(O)c1C2=O)C[C@@](O)(C(C)=O)C[C@@H]3O[C@H]1C[C@H](N)[C@H](O)[C@H](C)O1 [Daunorubicin] | −0.00186 | 0.01442 | 0.0107 | −0.05609 | 0.0522 | 0.05854 | 0.1614 | −0.0792 | 0.008882 | 0.01529 | −0.009852 | 0.06112 | 0.1305 | 0.0183 | 0.009895 | 0.008265 | 0.1515 | 0.1398 | −0.002722 | 0.04455 | AUC HT.EGTA: 0.03262; AUC HT.Nec-1: 0.02174; AUC HT.Pepstatin: 0.005649; AUC HT.SP600125: −0.0113; AUC HT.TLCK: 0.06429; AUC HT.U0126: −0.0159; AUC, modulator HT.3MA: 0.02823; AUC, modulator HT.ALLN: 0.008692
